Laboratory results taken from the supplement of paper PMC4862054.

Tests used:
Test in all cases: normalised viability (% of control), CellTiter-Blue; higher = more viable cells (about 100 = DMSO control)
CAL-85-1 [1] = conditions: 3000 nM; incubation time: 72 h
Experimental: (§1)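 DSRT, CellTiter-Blue viability, 72 h incubation. Signal is normalised to DMSO and benzethonium chloride controls. Value is the normalised response at dose 8.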

HDQ-P1 [2] = conditions: 3000 nM; incubation time: 72 h
Experimental: as §1

DU-4475 [3] = conditions: 3000 nM; incubation time: 72 h
Experimental: as §1

CAL-51 [4] = conditions: 3000 nM; incubation time: 72 h
Experimental: as §1

MDA-MB-453 [5] = conditions: 3000 nM; incubation time: 72 h
Experimental: as §1

CAL-148 [6] = conditions: 3000 nM; incubation time: 72 h
Experimental: as §1

CAL-85-1 [7] = conditions: 300 nM; incubation time: 72 h
Experimental: (§2)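 DSRT, CellTiter-Blue viability, 72 h incubation. Signal is normalised to DMSO and benzethonium chloride controls. Value is the normalised response at dose 6.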

MDA-MB-453 [8] = conditions: 300 nM; incubation time: 72 h
Experimental: as §2

CAL-148 [9] = conditions: 300 nM; incubation time: 72 h
Experimental: as §2

MDA-MB-468 = conditions: incubation time: 72 h
Summary of the method: (§3)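 Each entry is normalised viability at a single listed concentration within a series. It comes from breast cancer cell lines incubated 72 h with compound in 384-well plates, then measured with CellTiter-Blue fluorescence at 560/590 nm. Every plate was normalised between vehicle (100) and a positive kill control (0).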

BT-549 = conditions: incubation time: 72 h
Summary of the method: as §3

HCC1599 = conditions: incubation time: 72 h
Summary of the method: as §3

Hs578T = conditions: incubation time: 72 h
Summary of the method: as §3

CAL-85-1 [10] = conditions: incubation time: 72 h
Summary of the method: as §3

MDA-MB-436 = conditions: incubation time: 72 h
Summary of the method: as §3

SK-BR-3 = conditions: incubation time: 72 h
Summary of the method: as §3

HDQ-P1 [11] = conditions: incubation time: 72 h
Summary of the method: as §3

CAL-120 = conditions: incubation time: 72 h
Summary of the method: as §3

MFM-223 = conditions: incubation time: 72 h
Summary of the method: as §3

DU-4475 [12] = conditions: incubation time: 72 h
Summary of the method: as §3

HCC1143 = conditions: incubation time: 72 h
Summary of the method: as §3

BT-474 = conditions: incubation time: 72 h
Summary of the method: as §3

CAL-51 [13] = conditions: incubation time: 72 h
Summary of the method: as §3

MDA-MB-453 [14] = conditions: incubation time: 72 h
Summary of the method: as §3

CAL-148 [15] = conditions: incubation time: 72 h
Summary of the method: as §3

MDA-MB-231 = conditions: incubation time: 72 h
Summary of the method: as §3

C[C@H]1C[C@@H]2[C@H]([C@@H](O)C[C@@]3(C)[C@H]2CC[C@]3(O)C(=O)CO)[C@@]2(C)C=CC(=O)C=C12 [Methylprednisolone]
Conditions	normalised viability [%]
CAL-51 [4]	105
CAL-85-1 [1]	101
CAL-85-1 [7]	112
CAL-148 [6]	96.8
CAL-148 [9]	104
DU-4475 [3]	97.9
HDQ-P1 [2]	105
MDA-MB-453 [5]	74.1
MDA-MB-453 [8]	83.3

normalised viability [%]
Conditions	3 nM	10 nM	30 nM	100 nM	1000 nM	10000 nM
BT-474	–	121	–	–	105	112
BT-549	–	89.4	–	–	77.8	78.4
CAL-51 [13]	100	–	100	98.2	–	–
CAL-85-1 [10]	87.6	–	102	109	–	–
CAL-120	–	89.7	–	–	79.3	81.1
CAL-148 [15]	88	–	99.4	102	–	–
DU-4475 [12]	84.7	–	83.5	86.4	–	–
HCC1143	–	89.8	–	–	111	92.5
HCC1599	–	105	–	–	102	92.5
HDQ-P1 [11]	108	–	103	122	–	–
Hs578T	–	102	–	–	116	111
MDA-MB-231	–	104	–	–	114	119
MDA-MB-436	–	108	–	–	92.2	108
MDA-MB-453 [14]	112	–	85.6	75.3	–	–
MDA-MB-468	–	92.7	–	–	117	88.2
MFM-223	–	89.4	–	–	86.3	74.8
SK-BR-3	–	107	–	–	97.6	91.4

O=C(O)C(=O)O.[NH-][C@@H]1CCCC[C@H]1[NH-].[Pt+2] [Oxaliplatin]
Conditions	normalised viability [%]
CAL-51 [4]	118
CAL-85-1 [1]	84.5
CAL-85-1 [7]	96.9
CAL-148 [6]	82.8
CAL-148 [9]	121
DU-4475 [3]	108
HDQ-P1 [2]	102
MDA-MB-453 [5]	100
MDA-MB-453 [8]	98.8

normalised viability [%]
Conditions	3 nM	10 nM	30 nM	100 nM	1000 nM	10000 nM
BT-474	–	125	–	–	118	83.5
BT-549	–	93.9	–	–	74.2	52.6
CAL-51 [13]	97.9	–	92.2	94.9	–	–
CAL-85-1 [10]	99	–	83.2	87.3	–	–
CAL-120	–	87.1	–	–	93.2	52.2
CAL-148 [15]	93	–	106	120	–	–
DU-4475 [12]	112	–	106	100	–	–
HCC1143	–	82.2	–	–	94.2	44
HCC1599	–	87.3	–	–	79.6	70
HDQ-P1 [11]	110	–	103	107	–	–
Hs578T	–	106	–	–	129	66.9
MDA-MB-231	–	92.2	–	–	83.5	48.9
MDA-MB-436	–	111	–	–	88.6	56.5
MDA-MB-453 [14]	119	–	101	113	–	–
MDA-MB-468	–	98.7	–	–	97.7	56.5
MFM-223	–	98.6	–	–	94.1	50.5
SK-BR-3	–	98.1	–	–	122	47.5
